The record followed here is patent publication EP4631938A1, “NITROGEN-CONTAINING HETEROCYCLE WITH SEROTONIN RECEPTOR-BINDING ACTIVITY AND CARBOCYCLIC DERIVATIVE” (Shionogi & Co., Ltd, priority 2022, dated 2024).

The target of assay [1] is T1, human recombinant 5-HT2C receptor (Homo sapiens, UniProt P28335).
T1 construct: expressed in transfected cells; host or cells: Jump-In HEK cells (membrane preparation)
T1 sequence (P28335 33-458): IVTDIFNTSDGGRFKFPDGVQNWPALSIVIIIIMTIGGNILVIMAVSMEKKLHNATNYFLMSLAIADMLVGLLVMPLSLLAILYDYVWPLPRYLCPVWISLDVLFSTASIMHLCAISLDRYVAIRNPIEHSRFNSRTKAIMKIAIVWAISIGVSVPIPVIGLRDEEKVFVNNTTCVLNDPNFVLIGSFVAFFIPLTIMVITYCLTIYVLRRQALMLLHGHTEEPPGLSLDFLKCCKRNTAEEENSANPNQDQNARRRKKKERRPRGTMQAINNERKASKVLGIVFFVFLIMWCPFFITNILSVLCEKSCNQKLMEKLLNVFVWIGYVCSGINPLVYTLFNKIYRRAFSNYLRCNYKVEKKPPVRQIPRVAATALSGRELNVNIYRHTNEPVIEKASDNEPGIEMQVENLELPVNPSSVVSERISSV
In words: Test Example 2: 5-HT2C receptor binding inhibition test ([3H]-Mesulergine; non-specific ligand Serotonin HCl). The note with it: human serotonin 5-HT2C receptor binding activity. Here is the method:
The Kd value is calculated when the lot of the cell membrane is changed. 1 mmol/L non-specific binding calculating compound dissolved in DMSO or DMSO is previously dispensed to the microplate by 0.5 µL, and the cell membrane is diluted with an Assay buffer. The radioactive ligand solution is diluted step by step, and counts are checked with a liquid scintillator. The Assay buffer containing diluted cell membranes is dispensed by 50 µL/well into the microplate. The radioactive ligand solution is then dispensed by 50 µL/well into the microplate and the plate is sealed. The microplate is allowed to stand at 37°C for 2 hours. During this time, 50 mmol/L Tris-HCl (pH 7.4) is dispensed by 50 µL/well into the GF/B UniFilter plate and allowed to stand at 4°C for 1 hour or longer. Thereafter, filtration is performed with a Cell Harvester (PerkinElmer). The radioactive ligand solution is dispensed by 10 µL/well into empty wells of the GF/B UniFilter plate. After drying the GF/B UniFilter plate at room temperature, MicroScinti20 is dispensed by 50 µL/well into the GF/B UniFilter plate, and the plate is sealed. GF/B UniFilter plate is allowed to stand at room temperature overnight. The radioactivity of [^3H]-Mesulergine bound to the 5-HT2C receptor is measured using Microbeta2 (PerkinElmer) at a measurement time of 1 min/well. The Saturation curve is drawn from the measured value, and the Kd value is calculated from the slope of the Scatchard Plot.
A compound solution dissolved in DMSO is dispensed to a microplate by 0.5 µL, and a cell membrane and a hot ligand are each diluted with an Assay buffer. The Assay buffer containing diluted cell membrane is then dispensed by 50 µL/well into the microplate. The radioactive ligand solution is then dispensed by 50 µL/well into the microplate and the plate is sealed. The microplate is then allowed to stand at 37°C for 2 hours. During this time, 50 mmol/L Tris-HCl (pH 7.4) is dispensed by 50 µL/well into the GF/B UniFilter plate and allowed to stand at 4°C for 1 hour or longer. Thereafter, filtration is performed with a Cell Harvester (PerkinElmer). After drying the GF/B UniFilter plate at room temperature, MicroScinti20 is dispensed by 50 µL/well into the GF/B UniFilter plate, and the plate is sealed. GF/B UniFilter plate is allowed to stand at room temperature overnight. The radioactivity of [^3H]-Mesulergine bound to the 5-HT2C receptor is measured using Microbeta2 (PerkinElmer) at a measurement time of 1 min/well. Non-specific binding is calculated from the radioactivity of [^3H]-Mesulergine in the presence of 500 µmol/L Serotonin HCl of unlabeled ligand, and total binding is calculated from the radioactivity of [^3H]-Mesulergine in the absence of the compound of the present invention (Vehicle). Finally, the Ki value is calculated from the dose-response curve.
(§1) (The binding activity of the compound according to the present invention is calculated from the following binding inhibition rate (%).) Inhibition rate (%) = [1−(c−a)/(b−a)] × 100 [formula] • a; average cpm of non-specific binding • b; average cpm of total binding • c; cpm in the presence of the test compound
(§2) The compounds of the present invention were tested essentially as described above.

Assay [2] deals with T2, human recombinant 5-HT2A receptor (Homo sapiens, UniProt P28223).
T2 construct: expressed in transfected cells; host or cells: Jump-In HEK cells (membrane preparation)
In words: Test Example 1-2: 5-HT2A receptor binding inhibition test ([3H]-Ketanserin; non-specific ligand Ketanserin). The note with it: [3H]-Ketanserin; non-specific binding with 500 µmol/L Ketanserin; room temperature (25°C), 1.5 hours; read-out: h 5-HT2A Ki. Here is the method: The Kd value is calculated when the lot of the cell membrane is changed. 1 mmol/L non-specific binding calculating compound dissolved in DMSO or DMSO is previously dispensed to the microplate by 0.5 µL, and the cell membrane is diluted with an Assay buffer. The radioactive ligand solution is diluted step by step, and counts are checked with a liquid scintillator. The Assay buffer containing diluted cell membranes is dispensed by 50 µL/well into the microplate. The radioactive ligand solution is then dispensed by 50 µL/well into the microplate and the plate is sealed. The microplate is allowed to stand for 1.5 hours at room temperature (25°C). During this time, 50 mmol/L Tris-HCl (pH 7.4) is dispensed by 50 µL/well into the UniFilter plate and allowed to stand at 4°C for 1 hour or longer. Thereafter, filtration is performed with a Cell Harvester (PerkinElmer). The radioactive ligand solution is dispensed by 10 µL/well into empty wells of the UniFilter plate. After drying the UniFilter plate at room temperature, MicroScinti20 is dispensed by 50 µL/well into the UniFilter plate, and the plate is sealed. UniFilter plate is allowed to stand at room temperature overnight. The radioactivity of [^3H]-Ketanserin bound to the 5-HT2A receptor is measured using Microbeta2 (PerkinElmer) at a measurement time of 1 min/well. The Saturation curve is drawn from the measured value, and the Kd value is calculated from the slope of the Scatchard Plot.
A compound solution dissolved in DMSO is dispensed to a microplate by 0.5 µL, and a cell membrane and a hot ligand are each diluted with an Assay buffer. The Assay buffer containing diluted cell membrane is then dispensed by 50 µL/well into the microplate. The radioactive ligand solution is then dispensed by 50 µL/well into the microplate and the plate is sealed. Thereafter, the microplate is allowed to stand at room temperature (25°C) for 1.5 hours. During this time, 50 mmol/L Tris-HCl (pH 7.4) is dispensed by 50 µL/well into the UniFilter plate and allowed to stand at 4°C for 1 hour or longer. Thereafter, filtration is performed with a Cell Harvester (PerkinElmer). After drying the UniFilter plate at room temperature, MicroScinti20 is dispensed by 50 µL/well into the UniFilter plate, and the plate is sealed. UniFilter plate is allowed to stand at room temperature overnight. The radioactivity of [^3H]-Ketanserin bound to the 5-HT2A receptor is measured using Microbeta2 (PerkinElmer) at a measurement time of 1 min/well. Non-specific binding is calculated from the radioactivity of [^3H]-Ketanserin in the presence of 500 µmol/L Ketanserin of unlabeled ligand, and total binding is calculated from the radioactivity of [^3H]-Ketanserin in the absence of the compound of the present invention (Vehicle). Finally, the Ki value is calculated from the dose-response curve.
as §1, §2

Structures are written as SMILES.

T2 sequence (P28223 whole entry): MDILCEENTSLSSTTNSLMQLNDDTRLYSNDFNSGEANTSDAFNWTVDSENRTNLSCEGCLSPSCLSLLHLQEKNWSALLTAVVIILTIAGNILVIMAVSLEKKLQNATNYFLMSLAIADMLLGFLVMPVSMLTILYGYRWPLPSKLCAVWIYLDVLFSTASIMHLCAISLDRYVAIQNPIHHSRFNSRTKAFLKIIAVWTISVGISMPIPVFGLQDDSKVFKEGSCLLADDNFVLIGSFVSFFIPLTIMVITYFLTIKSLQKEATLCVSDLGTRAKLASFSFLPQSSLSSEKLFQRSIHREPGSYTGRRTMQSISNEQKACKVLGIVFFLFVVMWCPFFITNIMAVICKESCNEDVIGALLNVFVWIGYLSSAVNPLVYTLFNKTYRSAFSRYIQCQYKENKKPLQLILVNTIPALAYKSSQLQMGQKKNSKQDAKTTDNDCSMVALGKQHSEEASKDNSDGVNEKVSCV

Regarding `Cc1nc(OC2CC2)nc(C)c1-c1cc(Nc2ncc(C(F)(F)F)cc2Cl)ncc1OCCO` [Compound I-212], the inhibitory constant (Ki) in assay [1] amounted to 3.89 nM; in assay [2], 1.22 nM.
Take `COCCOc1nc(C)c(-c2cc(Nc3ncc(C(F)(F)F)cc3Cl)ncc2OCCO)c(C)n1` [Compound I-213]: the inhibition constant (Ki) was found to be 4.07 nM in assay [1] and 1.26 nM in assay [2].
In the case of `Cc1nc(N2CCCC2=O)nc(C)c1-c1cc(Nc2ncc(C(F)(F)F)cc2Cl)ncc1OCCO` [Compound I-215], the Ki in assay [1] came to 9.55 nM; in assay [2] it was 4.48 nM.
Consider `COCCc1nc(C)c(-c2cc(Nc3ncc(C(F)(F)F)cc3Cl)ncc2OCCO)c(C)n1` [Compound I-217], for which the inhibitory constant (Ki) in assay [1] came to 2.66 nM; in assay [2], 1.74 nM.
In the same order, the values of `COCC(F)(F)COc1nc(C)c(-c2cc(Nc3ncc(C(F)(F)F)cc3Cl)ncc2OCCO)c(C)n1` [Compound I-218] are 3.36 nM and 1.22 nM.
`Cc1nc(OCC2COC2)nc(C)c1-c1cc(Nc2ncc(C(F)(F)F)cc2Cl)ncc1OCCO` [Compound I-219]: the results for the Ki in assay [1] and in assay [2] were 6.28 nM and 1.25 nM, respectively.
Taken in the same sequence, the figures for `Cc1nc(OC2COC2)nc(C)c1-c1cc(Nc2ncc(C(F)(F)F)cc2Cl)ncc1OCCO` [Compound I-220] were 5.91 nM and 1.39 nM.
On to `CCc1nc(C)c(-c2cc(Nc3ncc(C(F)(F)F)cc3Cl)ncc2OCCO)c(C)n1` [Compound I-221], for which the inhibitory constant (Ki) in assay [1] came to 2.23 nM; in assay [2], 0.996 nM.
On to `CCCc1nc(C)c(-c2cc(Nc3ncc(C(F)(F)F)cc3Cl)ncc2OCCO)c(C)n1` [Compound I-222], for which the Ki in assay [1] was found to be 1.91 nM; in assay [2], 1.35 nM.
Take `Cc1nc(C(F)F)nc(C)c1-c1cc(Nc2ncc(C(F)(F)F)cc2Cl)ncc1OCCO` [Compound I-223]: the inhibitory constant (Ki) in assay [1] came to 9.21 nM; in assay [2] it was 0.877 nM.
With `Cc1cc(C(F)(F)F)cnc1Nc1cc(-c2c(C)cnn2C)c(OCCO)cn1` [Compound I-226], the Ki in assay [1] stood at 1.91 nM; in assay [2] it was 0.268 nM.
In the same order, the values of `O=C1NCCc2c1cccc2-c1cc(Nc2ncc(C(F)(F)F)cc2F)ncc1OCCO` [Compound I-227] are 26.7 nM and 1.21 nM.
Take `Cn1ncc(Cl)c1-c1cc(Nc2ccc(OC(C)(F)F)cn2)ncc1OCCO` [Compound I-229]: the figures for the inhibition constant Ki in assay [1] and in assay [2] were 2.22 nM and 0.28 nM, respectively.
`COCc1nc(C)c(-c2cc(Nc3ncc(-c4ccc(F)cc4)cc3Cl)ncc2OCCO)c(C)n1` [Compound I-230]: the figures for the Ki in assay [1] and in assay [2] were 0.372 nM and 0.576 nM, respectively.
As to `COCc1nc(C)c(-c2cc(Nc3ncc(OC(F)F)cc3Cl)ncc2OCCO)c(C)n1` [Compound I-231], the Ki in assay [1] came to 5.1 nM; in assay [2], 3.78 nM.
Turning to `COCc1nc(C)c(-c2cc(Nc3ncc(OCC(F)(F)F)cc3Cl)ncc2OCCO)c(C)n1` [Compound I-232], the Ki came out at 6.06 nM in assay [1] and 8.27 nM in assay [2].
Consider `COCc1nc(C)c(-c2cc(Nc3ncc(OCC(F)(F)C(F)(F)F)cc3Cl)ncc2OCCO)c(C)n1` [Compound I-233], for which the Ki in assay [1] was 1.76 nM; in assay [2], 4.42 nM.
Turning to `COCc1nc(C)c(-c2cc(Nc3ncc(-c4ccc(Cl)c(F)c4)cc3Cl)ncc2OCCO)c(C)n1` [Compound I-234], the inhibitory constant (Ki) worked out at 0.167 nM in assay [1] and 0.525 nM in assay [2].
On to `COCc1nc(C)c(-c2cc(Nc3ncc(-c4ccc(Cl)cn4)cc3Cl)ncc2OCCO)c(C)n1` [Compound I-235], for which the inhibition constant Ki in assay [1] was 0.984 nM; in assay [2], 0.925 nM.
Regarding `COCc1nc(C)c(-c2cc(Nc3ncc(-n4cc(Cl)cn4)cc3Cl)ncc2OCCO)c(C)n1` [Compound I-236], the Ki in assay [1] turned out to be 0.727 nM; in assay [2] it was 1.24 nM.
Taken in the same sequence, the figures for `COCc1nc(C)c(-c2cc(Nc3ncc(-c4cnn(C(F)F)c4)cc3Cl)ncc2OCCO)c(C)n1` [Compound I-237] were 7.37 nM and 7.43 nM.
In the same order, the values of `COCc1nc(C)c(-c2cc(Nc3ncc(OCCCC(F)(F)F)cc3Cl)ncc2OCCO)c(C)n1` [Compound I-238] are 2.64 nM and 5.12 nM.
On to `COCc1nc(C)c(-c2cc(Nc3ncc(-c4ncc(Cl)cn4)cc3Cl)ncc2OCCO)c(C)n1` [Compound I-239], for which the figures for the Ki in assay [1] and in assay [2] were 1.35 nM and 2.3 nM, respectively.
In the same order, the values of `COCc1nc(C)c(-c2cc(Nc3ncc(-c4nc(C(F)(F)F)co4)cc3Cl)ncc2OCCO)c(C)n1` [Compound I-240] are 1.54 nM and 2.05 nM.
Take `COCc1nc(C)c(-c2cc(Nc3ncc(-c4ccc(C#N)cc4)cc3Cl)ncc2OCCO)c(C)n1` [Compound I-241]: the inhibition constant (Ki) in assay [1] was determined as 0.637 nM; in assay [2] it was 0.799 nM.
For `COCc1nc(C)c(-c2cc(Nc3ncc(-c4ccc(C(F)F)cc4)cc3Cl)ncc2OCCO)c(C)n1` [Compound I-242], the results for the inhibition constant (Ki) in assay [1] and in assay [2] were 0.337 nM and 0.258 nM, respectively.
Taken in the same sequence, the figures for `COCc1nc(C)c(-c2cc(Nc3ncc(-c4cnn(C(F)(F)F)c4)cc3Cl)ncc2OCCO)c(C)n1` [Compound I-243] were 2.53 nM and 3.58 nM.
For the compound `COCc1nc(C)c(-c2cc(Nc3ncc(-c4ccc(C#N)nc4)cc3Cl)ncc2OCCO)c(C)n1` [Compound I-244], the values for the inhibition constant Ki in assay [1] and in assay [2] were 2.87 nM and 3.75 nM, respectively.

The term Ki denotes a measure of affinity in units of concentration, obtained from inhibition or displacement.
